Measurements: US4599325A, “Substituted tyrosyl alanine dipeptide amides” (G. D. Searle & Co., priority 1985, dated 1986)
Structures can show the parent of a compound that is named as a salt.

Target: T1, mu opiate receptor (Rattus norvegicus, UniProt P33535)
T1 construct: The receptor membrane homogenate was prepared using rat brain; from tissue; host or cells: rat brain membrane homogenate
Assay: Mu opiate receptor binding (3H-Dihydromorphine)
Details: Table 2; 3H-Dihydromorphine 0.2 nM, rat brain
Protocol: Several subtypes of opiate receptors have been identified. These multiple receptors are thought to mediate the different effects of opiates, e.g., mu receptors are believed to mediate the analgesic activity of opiates. Therefore, the relative affinities of the test compounds for the mu and the delta opiate receptors was determined. The receptor membrane homogenate was prepared using rat brain as previously described in this document. The binding assays for the mu and delta receptors were performed using a modification of the method described by Chang and Cuatrecasas. K.-J. Chang and P. Cuatrecasas. Multiple Opiate receptors: enkephalins and morphine bind to receptors of different specificity, J. Biol. Chem. 254, 2610-2618 (1979). The incubation mixtures contained 0.75 ml of homogenate (1 mg protein/ml) and 0.05 ml of ^3 H-Dihydromorphine (final concentration of 0.2 nM) or 0.05 ml ^3 H-(D)-Ala^2 -(D)-Leu^5 enkephalin (final concentration of 0.2 nM). Both the displacer, naloxone, and the test compounds were added in 0.1 ml volumes. Finally, […] tris-HCl buffer (pH 7.4 at 25° C.) was added to bring the total volume up to 1 ml. The mixture were then incubated 60 minutes at 25° C. before filtering.
The IC50 values, i.e., the concentration of the test compound that inhibited ligand specific binding to its receptor by 50%, were calculated using log-probit analysis, D. J. Finney. […]

T1 sequence (P33535 whole entry): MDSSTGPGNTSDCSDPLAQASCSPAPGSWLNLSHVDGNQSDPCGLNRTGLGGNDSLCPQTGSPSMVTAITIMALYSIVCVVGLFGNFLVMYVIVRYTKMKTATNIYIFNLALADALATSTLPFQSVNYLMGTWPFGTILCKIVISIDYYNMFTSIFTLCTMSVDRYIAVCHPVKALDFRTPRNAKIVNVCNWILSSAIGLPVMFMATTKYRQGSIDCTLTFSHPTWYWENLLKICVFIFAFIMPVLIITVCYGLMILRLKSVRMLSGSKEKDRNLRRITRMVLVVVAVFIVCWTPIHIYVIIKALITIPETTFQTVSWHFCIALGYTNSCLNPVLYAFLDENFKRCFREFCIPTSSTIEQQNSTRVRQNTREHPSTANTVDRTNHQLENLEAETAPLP

Row | Compound | IC50 [nM]
1 | Cc1cc(O)cc(C)c1C[C@H](N)C(=O)N[C@H](C)C(=O)NCCCc1ccccc1 [Example 5, 2,6-dimethyltyrosyl-N-(3-phenylpropyl)-D-alaninamide, hydrochloride] | 0.1
2 | tyrosine-D-alanine-phenylpropylamide [Prior Art, reference compound] | 8.8
